Data published in ChEMBL document CHEMBL1201862, “PubChem BioAssay data set” (2004).
The source made the active and inactive calls.

Columns and labels:
[1] = inhibition of ADAM10 peptide cleavage – biochemical, FRET peptide substrate, recombinant human ADAM10, selectivity assay for ADAM17 exosite inhibitor project, dose response (AID 743259);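 also: ADAM10 enzyme cleaving a FRET peptide substrate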
[2] = fluconazole-exposed Candida albicans growth modulators – fluorescence, retest, confirmation (AID 2467); assay type: functional, cell-based
[3] = target: Disintegrin and metalloproteinase domain-containing protein 17 (Homo sapiens, UniProt P78536); test: exosite inhibitors of ADAM17, dose response, biochemical (AID 743260)
[4] = NIH-3T3 fibroblast cytotoxicity, dose response, cytotoxicity control, cell-based, fluorescence, Alamar Blue, secondary assay (AID 2327); assay type: functional;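 also: NIH-3T3 mouse fibroblasts cultured with fluconazole at 8 µg/mL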
[5] = target: DNA dC->dU-editing enzyme APOBEC-3G (Homo sapiens, UniProt Q9HC16); test: Dose Response confirmation of small molecule APOBEC3G DNA Deaminase Inhibitors via a fluorescence-based single-stranded DNA deaminase assay. [Related pubchem assays (depositor defined):AID493012, AID493028]; assay type: functional
[6] = viability loss in THP-1 monocytes – THP-1 cells, cytotoxicity control for Vif-APOBEC3G degradation inhibitor project, dose response (AID 1117359); assay type: functional; conditions: THP-1
cells [7] = assay type: functional
[8] = THP-1 cell cytotoxicity, dose response, cytotoxicity control for non-replicating M. tuberculosis project (AID 489025); assay type: functional
[9] = Luminescence Cell-Based Dose Retest to Confirm Inhibitors of Cancer Stem Cells. [Related pubchem assays (depositor defined):AID2717, AID2721]; assay type: functional; conditions: Homo sapiens
[10] = HepG2 cell cytotoxicity, dose response, cytotoxicity control for non-replicating M. tuberculosis project (AID 489018); assay type: functional; conditions: Mycobacterium tuberculosis
INS1 = test: INS-1E survival protection against cytokine death – cell-based, luminescence, retest, dose response (AID 449756); assay type: functional; conditions: Rattus norvegicus;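 also: cell death triggered by IL-1 beta plus TNF-alpha plus IFN-gamma mixture; protective hits raise ATP signal compared with cytokine alone wells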
[11] = Vero E6 cell cytotoxicity, dose response, cytotoxicity control for non-replicating M. tuberculosis project, secondary assay (AID 492998); assay type: functional, VeroE6; conditions: Vero C1008
[12] = viability of HCT116 lacking mutant beta-catenin – cell-based, human colon tumor, dose response (AID 1045); assay type: functional;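 also: HCT116 colon tumor cells with beta catenin knocked out; cells exposed to compound for 60 hours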
[13] = target: Heat shock protein HSP 90-alpha (Homo sapiens, UniProt P07900); assay type: functional, organism-based
H4 = test: Luminescence Cell-Based Dose Response HTS to Identify Activators of 5'UTR Stem-Loop Driven Prion Protein mRNA Translation in H4 Neuroglioblastoma Cells. [Related pubchem assays: 1829 (Project Summary), 1814 (Primary HTS)]; assay type: functional; conditions: Homo sapiens
[14] = Luminescence Cell-Based Dose Confirmation to Identify Activators of 5'UTR Stem-Loop Driven Alpha-Synuclein mRNA Translation in H4 Neuroglioblastoma Cells. [Related pubchem assays: 1829 (Project Summary), 1814 (Primary HTS)]; assay type: functional
[15] = Luminescence Cell-Based Dose Response HTS to Identify Activators of Luciferase Translation or Activity in H4 […] Cells. [Related pubchem assays: 1829 (Project Summary), 1814 (Primary HTS)]; assay type: functional
[16] = Luminescence Cell-Based Dose Response to Identify Activators of 5'UTR Stem-Loop Driven Prion Protein mRNA Translation in H4-C Neuroglioblastoma Cells. [Related pubchem assays: 1829 (Project Summary), 1814 (Primary HTS)]; assay type: functional
Paired box protein Pax-8 = Paired box protein Pax-8 (Homo sapiens, UniProt Q06710); test: PAX8 transcriptional activity inhibition in RMG-I – RMG-I cells, luciferase, cherry-pick, dose response (AID 687027); assay type: functional, cell-based;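 also: luciferase reporter driven by Pax8 target thyroperoxidase promoter measured by SteadyGlo luminescence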
[17] = microbe, parasite or virus in culture; assay type: functional; conditions: Mycobacterium tuberculosis
[18] = viability of PTEN-deleted HCT116 cells – cell-based, HCT116 PTEN knockout, dose response (AID 1047); assay type: functional;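 also: HCT116 colon tumor cells with PTEN knocked out; cells exposed to compound for 60 hours before readout; potency for loss of cell viability measured by luminescence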
[19] = Luminescence Cell-Based Dose Confirmation HTS to Identify Activators of 5'UTR Stem-Loop Driven Alpha-Synuclein mRNA Translation in H4 Neuroglioblastoma Cells. [Related pubchem assays: 1829 (Project Summary), 1814 (Primary HTS)]; assay type: functional
[20] = Luminescence Cell-Based Dose Response to Identify Activators of Luciferase Translation or Activity in H4-C Neuroglioblastoma Cells. [Related pubchem assays: 1829 (Project Summary), 1814 (Primary HTS)]; assay type: functional
[21] = Luminescence Cell-Based Dose Response HTS to Identify Inhibitors of 5'UTR Stem-Loop Driven Prion Protein mRNA Translation in H4 Neuroglioblastoma Cells. [Related pubchem assays: 1827 (Project Summary), 1813 (Primary HTS)]; assay type: functional
[22] = HEK-293T viability loss after treatment – luminescence, T-cell screen hits, cytotoxicity control for TCR NF-kB inhibitor project, dose response (AID 489026); assay type: functional, cell-based;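 also: cells exposed to compound about 14 hours before the viability readout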
[23] = luciferase reporter signal suppression in cells – H4 neuroglioma cells, luminescence, dose response (AID 1990); assay type: functional, cell-based
cells [24] = assay type: functional, cell-based
[25] = alpha-synuclein stem-loop luciferase translation blockers – H4 neuroglioma cells, luminescence, confirmation (AID 1988); assay type: functional, cell-based
[26] = alpha-synuclein stem-loop translation blockers – luminescence, H4 neuroglioblastoma cells, dose confirmation, confirmation (AID 2454); assay type: functional, cell-based;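 also: H4 neuroglioblastoma cells carrying an alpha-synuclein 5'UTR luciferase reporter; potency for inhibition of the luciferase signal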
[27] = luciferase reporter signal reduction – luminescence, H4-C neuroglioblastoma cells, dose response (AID 2458); assay type: functional, cell-based;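 also: H4 neuroglioblastoma cells stably carrying a luciferase reporter gene fusion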

Chain of Disintegrin and metalloproteinase domain-containing protein 17 (P78536 whole entry, the tested form may be a part): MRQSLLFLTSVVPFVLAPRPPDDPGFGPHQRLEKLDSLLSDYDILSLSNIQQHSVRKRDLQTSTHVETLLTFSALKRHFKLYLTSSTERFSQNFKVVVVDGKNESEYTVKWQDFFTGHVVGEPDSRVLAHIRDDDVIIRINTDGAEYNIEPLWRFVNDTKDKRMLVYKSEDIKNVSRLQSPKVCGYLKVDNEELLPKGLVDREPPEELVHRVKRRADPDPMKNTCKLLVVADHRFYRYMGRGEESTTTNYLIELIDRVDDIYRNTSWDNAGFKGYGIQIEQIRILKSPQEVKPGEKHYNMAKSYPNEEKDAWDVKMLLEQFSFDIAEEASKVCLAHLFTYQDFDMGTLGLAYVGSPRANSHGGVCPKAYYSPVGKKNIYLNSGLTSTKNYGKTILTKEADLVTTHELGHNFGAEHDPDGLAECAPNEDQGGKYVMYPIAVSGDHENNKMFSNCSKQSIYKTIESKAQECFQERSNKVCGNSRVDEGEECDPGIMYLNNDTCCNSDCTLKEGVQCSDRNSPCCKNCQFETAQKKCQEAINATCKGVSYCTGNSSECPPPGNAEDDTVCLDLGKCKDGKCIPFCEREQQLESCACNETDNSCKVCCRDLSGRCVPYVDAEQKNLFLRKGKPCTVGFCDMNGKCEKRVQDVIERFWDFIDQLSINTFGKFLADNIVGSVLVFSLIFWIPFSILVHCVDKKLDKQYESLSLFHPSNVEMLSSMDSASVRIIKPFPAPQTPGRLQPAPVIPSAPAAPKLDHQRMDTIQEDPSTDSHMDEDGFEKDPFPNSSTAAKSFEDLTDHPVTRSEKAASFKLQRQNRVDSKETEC
Chain of DNA dC->dU-editing enzyme APOBEC-3G (Q9HC16 whole entry): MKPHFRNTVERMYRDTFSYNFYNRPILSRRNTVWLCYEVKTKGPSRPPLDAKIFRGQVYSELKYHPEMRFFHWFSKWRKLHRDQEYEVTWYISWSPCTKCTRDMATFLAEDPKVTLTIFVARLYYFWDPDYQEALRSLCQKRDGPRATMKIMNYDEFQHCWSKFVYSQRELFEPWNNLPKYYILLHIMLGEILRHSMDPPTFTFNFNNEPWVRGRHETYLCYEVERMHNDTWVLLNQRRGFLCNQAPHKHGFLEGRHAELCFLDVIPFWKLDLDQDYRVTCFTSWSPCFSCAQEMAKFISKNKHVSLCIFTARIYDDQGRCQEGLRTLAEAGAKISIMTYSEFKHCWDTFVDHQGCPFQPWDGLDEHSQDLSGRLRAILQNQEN
Chain of Paired box protein Pax-8 (Q06710 whole entry): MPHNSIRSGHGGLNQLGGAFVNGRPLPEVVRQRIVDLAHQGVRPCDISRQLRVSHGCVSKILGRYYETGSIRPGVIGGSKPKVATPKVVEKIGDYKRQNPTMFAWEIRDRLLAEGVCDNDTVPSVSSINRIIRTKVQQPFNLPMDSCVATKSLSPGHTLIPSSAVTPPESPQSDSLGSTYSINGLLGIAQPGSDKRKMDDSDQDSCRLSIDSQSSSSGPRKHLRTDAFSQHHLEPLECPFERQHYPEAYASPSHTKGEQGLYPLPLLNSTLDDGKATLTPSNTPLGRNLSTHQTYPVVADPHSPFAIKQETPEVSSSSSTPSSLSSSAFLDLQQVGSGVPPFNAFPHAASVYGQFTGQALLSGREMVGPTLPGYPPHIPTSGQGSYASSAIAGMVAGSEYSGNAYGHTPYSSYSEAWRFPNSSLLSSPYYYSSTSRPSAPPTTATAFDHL

In the case of O=[N+]([O-])CC(c1ccccc1)P(=O)(c1ccccc1)c1ccccc1 (configuration not stated), the IC50 [1] is reported as > 69.5 µM (inactive), the EC50 [2] is reported as 5.58 µM (active) and the IC50 [3] is reported as 10.9 µM (inactive). The EC50 [4] was > 160 µM (inactive).

With O=C(Cc1ccc(Cl)cc1Cl)Nc1cccc(S(=O)(=O)Nc2ccccc2F)c1 the IC50 [5] was 29.4 µM (active).

In the case of CCCCN(CCCC)CCCN1CC(=O)N2[C@@H](Cc3c([nH]c4ccccc34)C2(C)C)C1=O, the CC50 [6] is reported as > 40 µM (active).

In the case of CCC(C)NCCOc1ccc(C(C)(C)c2ccccc2)cc1 (configuration not stated), the IC50 (cells [7]) is reported as 11.7 µM (active), the CC50 [8] is reported as 27.6 µM (active) and the AC50 [9] is reported as 1.63 µM (active). The CC50 [10] was 19.5 µM (active).

In the case of CCCCCn1c(=O)c(C(=O)Nc2nc3ccccc3[nH]2)c(O)c2ccccc21, the AC50 (INS1) is reported as 6.54 µM (active), the IC50 (cells [7]) is reported as 7.7 µM (active) and the CC50 [11] is reported as 6.21 µM (active). The CC50 [8] was 6.69 µM (active) and the CC50 [10] was > 20 µM (active).

In the case of O=C(CCCN1C(=O)/C(=C\c2ccco2)SC1=S)Nc1cccc2ccccc12, the CC50 [6] is reported as 29 µM (active).

In the case of Cc1cc(-c2nnc(S)n2/N=C/C(Br)=C/c2ccccc2)[nH]n1, the AC50 (INS1) is reported as > 60 µM (inactive), the EC50 [12] is reported as 1.52 µM (active) and the IC50 (cells [7]) is reported as 4.68 µM (active). The AC50 [13] was 10.4 µM (active), the CC50 [11] was 9.01 µM (active) and the EC50 (H4) was > 120 µM (not active). The CC50 [8] was 11.1 µM (active), the EC50 [14] was 943 nM (active) and the EC50 [15] was < 100 nM (active). The EC50 [16] was > 12 µM (not active), the AC50 (Paired box protein Pax-8) was 2.78 µM (active) and the CC50 [17] was 29.3 µM (active). The EC50 [18] was 1.96 µM (active), the EC50 [19] was 77.7 µM (active) and the EC50 [20] was 8.65 µM (active). For the same compound, the CC50 [10] was > 20 µM (active).

For CCOC(=O)c1c(NC(=O)CCN2CCOCC2)sc(C)c1-c1ccccc1, the CC50 [6] was > 40 µM (active).

With CN(C)c1ccc2c(c1)OC(N)=C(C#N)C2c1cccc(F)c1 (configuration not stated) the EC50 [21] was < 100 nM (active), the IC50 [22] was 40.4 µM (inactive) and the EC50 [23] was < 100 nM (active). For the same compound, the EC50 (cells [24]) was 233 nM (active), the EC50 [25] was < 100 nM (active) and the EC50 [26] was 338 nM (active). The EC50 [27] was 228 nM (active).

With COc1cc(/C=C(\C#N)c2ccccn2)ccc1OCc1ccccc1 the IC50 [1] was > 69.5 µM (inactive) and the IC50 [3] was > 69.5 µM (inactive).
